Reference: patent US9708628B2, “Cationic lipid having improved intracellular kinetics” (NOF CORPORATION, priority 2011, dated 2017)
“Also recorded” adds a separate entry of the source.

Experiments:
HT1080 cells [1] = assay: Time-course of intracellular uptake amount of MEND (Cy5-labeled pDNA, FACS); format: cell-based; settings: pDNA 1.6 μg/2 mL/well; 1, 3, 6 hr
Procedure: MENDs of B-2-4 (Example 4), B-2 (Example 1) were prepared according to [Experimental Example 1] (1), (2), [Experimental Example 15]. For the preparation, PEG2000-DMG was used as PEG lipid, and MEND solutions corresponding to 0.55 mM of the lipid concentration were prepared. For cationic MEND, lipids having a composition of DOTAP (Comparative Example 3):DOPE:Chol:=3:4:3 were used, and the cationic MEND was prepared according to the method described in [Experimental Example 1] (3). pDNA was labeled with fluorescence according to the method described in [Experimental Example 15] (2).
HT1080 cells were plated on a 6-well plate at 2×10^5 cells/2 mL/well 24 hr before, various sample MENDs were diluted with DMEM (FBS+) to a pDNA concentration of 1.6 μg/2 mL/well and transfected into the well. After 1, 3, 6 hr, MEND-containing DMEM was removed, and the cells were washed twice with heparin (20 units/mL, 1 mL), and further once with PBS(−) (1 mL). 0.05% Trypsin solution (500 μL) was added, and the cells were stood in an incubator at 37° C. for 3 min. DMEM (FBS+) (1 mL) was added and the mixture was centrifuged (700 g, 4° C., 5 min). The supernatant was removed and the cells were suspended in FACS buffer (1 mL). […] The suspension was passed through a 44 μm nylon mesh immediately before the measurement, and the fluorescence intensity of intracellular Cy5 was measured.

HT1080 cells [2] = assay: Evaluation of endosome amount (Lysotracker Green); format: cell-based; settings: 6 hr after transfection
Procedure: MENDs having a composition of B-2-4 (Example 4):DOPE:Chol=3:3:4, B-2 (Example 1):SOPE:Chol=5:3:2 were prepared by the method described in [Experimental Example 1] (2). For the preparation, PEG2000-DMG was used as PEG lipid, and MEND solutions corresponding to 0.55 mM of the lipid concentration were prepared.
HT1080 cells were plated on a glass bottom dish at 5×10^4 cells/2 mL/dish 24 hr before. MEND was diluted with DMEM (FBS 10%+) to achieve pDNA 1.6 μg/2 mL and transfected into the cells. The cells without transfection of MEND were used as a control. After 5.5 hr, Lysotracker Green (Life technologies) was added at 2 μL/dish and Hoechst 33342 (Dojindo) was further added at 2 μL/dish 30 min later. 6 hr after the transfection, the cells were washed twice with heparin (20 units/mL, 2 mL), Krebs buffer (1 mL) was added, and the cells were observed by a confocal laser scan microscope.
Endosome/lysosome and nucleus were shown in pseudo colors of green and blue, respectively. The relative endosome amount was calculated according to the following formula.

HT1080 cells [3] = assay: Intracellular kinetics (nuclear transport), confocal microscopy; format: cell-based; settings: 3 hr after transfection
From the text: For MEND preparation, Rhodamine-labeled pDNA prepared by the method of [Experimental Example 1] (4) was used. For preparation of MEND encapsulating the rhodamine-labeled pDNA, the pDNA solution described in [Experimental Example 1] (1) was completely replaced by rhodamine-labeled pDNA. In addition, the lipid constituting MEND was labeled with fluorescence by the method described in [Experimental Example 1] (3). MENDs having a composition of B-2-4 (Example 4):DOPE:Chol=3:3:4, B-2 (Example 1):SOPE:Chol=5:3:2 were prepared by the method described in [Experimental Example 1] (2). For the preparation, PEG2000-DMG was used as PEG lipid, and MEND solutions corresponding to 0.55 mM of the lipid concentration were prepared.
HT1080 cells were plated on a glass bottom dish at 5×10^4 cells/2 mL/dish 24 hr before. MEND was diluted with DMEM (FBS 10%+) to achieve pDNA 1.6 μg/2 mL and transfected into cells. After 3 hr, hoechst33342 (1 μL) was added and, 10 min later, the cells were washed twice with heparin solution (20 units/mL, 2 mL). Krebs buffer (1 mL) was added, and the image was obtained by a confocal laser scan microscope.

liver = assay: Intrahepatic behavior of MEND (intravital confocal microscopy); format: in vivo, ICR mice; settings: Rhodamine-DOPE labeled MEND, 40 μg DNA/mouse, about 10 min filming
Procedure: Rhodamine-DOPE was added to R8/GALA-MEND in an amount of 0.1% of the total lipid concentration, and to B-2 MEND in an amount of 1% of the total lipid concentration. 50 mg/mL Sodium pentobarbital (Nacalai Tesque) was diluted 5-fold with saline and intraperitoneally administered to ICR mice (5-week-old male) for anesthesia. Griffonia simplicifolia Lectin I-B4 Isolectin, FITC Conjugate (VECTOR Laboratories, about 80 μL) was administered to the mice under anesthesia from the tail vein to stain the vascular endothelial cells. […] A winged intravenous indwelling needle connected with an extension tube filled with the MEND solution was indwelled in the tail vein of the mouse. To prevent dislocation of the observation site due to the heart beat of the mouse, a device for fixing the liver by adsorption (Shimizu K et al., J Biosci Bioeng. 112(5): 508-10) was used, and the mouse was observed using a confocal microscope (Nikon A1) with a 60-fold water immersion lens.

TNF-α = assay: Cytokine production by MEND administration, TNF-α (ELISA); format: in vivo, ICR mice; settings: pCpGfree-Luc(0), 40 μg DNA
Procedure: (§1) MENDs used in [Experimental Example 12] were each administered to 5-week-old male ICR mice from the tail vein in an amount corresponding to 40 μg DNA. 1, 3, 6, 24 hr later, the blood was collected from the heart, and TNF-α, IFN-γ, IL-12p70 were measured using Quantikine ELISA kit (R&D Systems).

IFN-γ = assay: Cytokine production by MEND administration, IFN-γ (ELISA); format: in vivo, ICR mice; settings: pCpGfree-Luc(0), 40 μg DNA
Procedure: as §1

IL-12p70 = assay: Cytokine production by MEND administration, IL-12p70 (ELISA); format: in vivo, ICR mice; settings: pCpGfree-Luc(0), 40 μg DNA
Procedure: as §1

In the case of `CC1=C(/C=C/C(C)=C/C=C/C(C)=C/C(=O)OCCCN(C)CCSSCCN(C)CCCOC(=O)/C=C(C)/C=C/C=C(C)/C=C/C2=C(C)CCCC2(C)C)C(C)(C)CCC1` [Example B-2-4], the “intracellular uptake amount (Cy5-labeled pDNA)” value (HT1080 cells [1]) is reported as “low as compared to the MENDs using DOTAP; also recorded: more highly uptaken than B-2”, the relative endosome amount (HT1080 cells [2]) is reported as “significant decrease in endosome than the untreated group and the B-2 treatment group” and the intracellular localization (HT1080 cells [3]) is reported as “accumulate near the nucleus”.
For `CCCCCCCCCCCCCC(=O)OCCCN(C)CCSSCCN(C)CCCOC(=O)CCCCCCCCCCCCC` [Example B-2], the “behavior in liver blood vessels” value (liver) was “coagulation was not formed and the MEND uniformly flows through the blood vessels”, the TNF-α blood concentration (TNF-α) was “maintained the normal value at any time point” and the IFN-γ blood concentration (IFN-γ) was “maintained the normal value at any time point”. For the same molecule, the IL-12p70 blood concentration (IL-12p70) was “maintained the normal value at any time point”, the “intracellular uptake amount (Cy5-labeled pDNA)” value (HT1080 cells [1]) was “low as compared to the MENDs using DOTAP” and the intracellular localization (HT1080 cells [3]) was “diffused in the cell”.
